PubChem BioAssay (NCI)
Where “and” joins values, the source holds several entries; their conditions need not be identical. Identical values can stand only once.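 A five-concentration, 48-hour dose response in 96-well plates underlies each endpoint, interpolated linearly between surrounding concentrations. Abbreviation: GI50, concentration required for 50% inhibition of growth. At the TGI there is no net growth.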

What was measured:
Test in all cases: inhibition of tumour cell growth, NCI panel, 48 h
[1] = system: OVCAR-5 ovarian
[2] = system: SF-539 CNS
[3] = system: UACC-62 melanoma
[4] = system: MCF7 breast
[5] = system: MOLT-4 leukemia
[6] = system: COLO 205 colon
[7] = system: CAKI-1 renal
[8] = system: MDA-MB-435
[9] = system: HS 578T breast
[10] = system: OVCAR-8 ovarian

Compound | TGI [1] | TGI [2] | TGI [3] | TGI [4] | TGI [5] [µM] | TGI [6] | TGI [7] | TGI [8] | TGI [9] | TGI [10] | GI50 [2] | GI50 [3] | GI50 [5] | GI50 [10]
CC(=O)NC1C(OCc2ccccc2)OC(CO)C(O)C1OC(C)C(=O)N[C@@H](C)C(=O)N[C@H](CCC(=O)NCCNCCNc1c2ccccc2nc2cccc([N+](=O)[O-])c12)C(N)=O (some centres undefined) | 5.19 µM | 0.991 µM | 0.199 µM | 2.17 µM | > 100 | 0.198 µM | 0.565 µM | 0.235 µM | 5.13 µM | 0.457 µM |  |  |  | 
CC(C)(CO[C@H]1C[C@H]2CC[C@@]1(C)C2(C)C)[N+](=O)[O-] | 33.9 µM | 32.1 µM | 41.7 µM | 49.9 µM | 50.5 | 31.4 µM | 60.3 µM | 34 µM | 55.9 µM | 56.8 µM |  |  |  | 
COc1cc2c(cc1OC)C(=O)N(c1ccc(OCCN3CCCC3)cc1)C2 | > 100 µM | > 100 µM | > 100 µM | > 100 µM | > 100 | > 100 µM | > 100 µM | > 100 µM | > 100 µM | > 100 µM |  |  |  | 
CCN(CC)C(=S)SC(C(=O)Nc1nnc(-c2ccc(Cl)cc2)o1)c1ccccc1 (centres undefined) | 26.6 µM | 30.5 µM | 23.6 µM | > 100 µM | > 100 | 14.5 µM | 51.8 µM | 36 µM | > 100 µM | > 100 µM |  |  |  | 
Cc1cn(CCCCCCOC(=O)NC(CCCNC(N)=O)C(=O)O)c(=O)[nH]c1=O (centres undefined) | > 100 µM | > 100 µM | > 100 µM | > 100 µM | > 100 | > 100 µM | > 100 µM | > 100 µM | > 100 µM | > 100 µM |  |  |  | 
O=C(CNc1ccccc1C(=O)O)Nn1cnc2ccc(S(=O)(=O)Nc3ccccc3C(=O)O)cc2c1=O | > 100 µM | > 100 µM | > 100 µM | > 100 µM | > 100 | > 100 µM | > 100 µM | > 100 µM | > 100 µM | > 100 µM |  |  |  | 
C=C1CCC[C@@H](C)C(O)[C@@H]2OC(=O)C(=C)[C@@H]2C[C@@H](OC(C)=O)[C@@]2(C)CC[C@@H]1O2 (some centres undefined) | 16.1 µM | 15.3 µM | 11.7 µM | 11.6 µM | 15.4 | 13.4 µM | 13.6 µM | 15.1 µM | 29.4 µM | 16.4 µM |  |  |  | 
COC1CC(C)(NC(=O)C(F)(F)F)C2OC(c3ccccc3)OCC2O1 (centres undefined) | > 100 µM | > 100 µM | > 100 µM | > 100 µM | > 100 | > 100 µM | > 100 µM | > 100 µM | > 100 µM | > 100 µM |  |  |  | 
Cc1c(C)c2c(c(N)c1C#N)C(=O)N(N)C2=O | > 100 µM | > 100 µM | > 100 µM | > 100 µM | > 100 | > 100 µM | > 100 µM | > 100 µM | > 100 µM | > 100 µM |  |  |  | 
N#Cc1c(-c2ccc([N+](=O)[O-])cc2)c(C#N)c(=O)n(NS(=O)(=O)c2ccccc2)c1S | > 100 µM | 46.1 µM | 60.3 µM | > 100 µM | 46.5 | > 100 µM | > 100 µM | 81.9 µM | 58.5 µM | > 100 µM |  |  |  | 
N#Cc1nc(CCc2nc(C#N)c(N)o2)oc1N | > 10 µM | > 10 µM | > 10 µM | > 10 µM | > 10 | > 10 µM | > 10 µM | > 10 µM | > 10 µM | > 10 µM |  |  |  | 
COC(=O)C1OC(O[C@H]2CC[C@]3(C)[C@H]4CC=C5[C@@H]6CC(C)(C)CC[C@]6(C(=O)OC6OCC(O)C(O)C6OC6OC(C)C(OC7OCC(O)C(O)C7O)C(O)C6O)[C@H](O)C[C@@]5(C)[C@]4(C)CC[C@H]3C2(C)C)C(O)C(O)C1O (some centres undefined) | 15.8 µM and 19.4 µM | > 100 µM and 37.5 µM | 8.55 µM and 21.7 µM | 10.3 µM and 4.43 µM | > 100 | 3.02 µM and 3.31 µM | 11.2 µM and 14.9 µM | 3.78 µM and 5.21 µM | 35.9 µM and 35.2 µM | 26.8 µM and 8.47 µM | > 100 µM and 19 µM | 2.89 µM and 7.04 µM | > 42.6 µM and 14.2 µM | 11.8 µM and 2.76 µM
COC(=N)C1(C#N)NC(c2ccsc2)C(C#N)(C#N)NC1c1ccsc1 (centres undefined) | > 100 µM | > 100 µM | > 100 µM | > 100 µM | > 100 | > 100 µM | > 100 µM | > 100 µM | > 100 µM | > 100 µM |  |  |  | 
CN1CCN(C(=O)c2cn(Cc3cncn3Cc3ccc4c(c3)OCO4)cc2-c2cccc3ccccc23)CC1 | > 100 µM | > 72.8 µM | 46.8 µM | > 83.6 µM | 33.6 | 49.9 µM | > 84.9 µM | > 58.9 µM | > 100 µM | > 100 µM |  |  |  | 
N#Cc1c(NC(=S)Nc2ccc(Cl)cc2)sc2c1CCN(N1CCc3c(sc(NC(=S)Nc4ccc(Cl)cc4)c3C#N)C1)C2 | 31.1 µM | 34.2 µM | 41.8 µM | > 100 µM | > 100 | 33.4 µM | > 100 µM | > 100 µM | > 100 µM | 88.5 µM |  |  |  | 
C[n+]1cccc2ccc3cccnc3c21 | > 100 µM | > 100 µM | > 100 µM | > 100 µM | > 100 | 70 µM | > 100 µM | > 100 µM | 64.3 µM | > 100 µM |  |  |  | 
C=C1c2nc3ccccc3n2C=C(c2ccc(C)cc2)N1c1ccc(OC)cc1 | > 100 µM | > 100 µM | > 100 µM | > 100 µM | > 100 | > 100 µM | > 96.9 µM | 49.2 µM | > 100 µM | > 100 µM |  |  |  | 
Cc1nc(NC(C)(CO)CO)nc(N/N=C/c2ccc(Cl)cc2)c1C(=O)Nc1ccc(Cl)cc1 | > 100 µM | > 100 µM | > 100 µM | > 100 µM | > 100 | > 100 µM | > 100 µM | > 100 µM | > 100 µM | > 100 µM |  |  |  | 
O=P1(N(CCCl)CCCl)Oc2ccc(Cl)cc2C(C(Cl)(Cl)Cl)c2cc(Cl)ccc2O1 (centres undefined) | > 100 µM | 29.9 µM | 26.7 µM | 73.9 µM | > 100 | 26.5 µM | > 100 µM | 71.8 µM | 41 µM | > 100 µM |  |  |  | 
O=C(O)C(Cc1ccccc1)NCc1c(O)ccc2c(-c3ccccc3)cc(=O)oc12 (centres undefined) | > 100 µM | > 100 µM | > 100 µM | > 100 µM | > 100 | > 100 µM | > 100 µM | > 100 µM | > 100 µM | > 100 µM |  |  |  | 
